In PMC12666538:

What was measured:
[1] = CCClick: formaldehyde (10 mM) bridges the two exocyclic methylene carbons of a Fischer base dimer (Knoevenagel dehydration cyclization, two C-C bonds), then hemin (1 mM)/air oxidative dehydrogenation to cyclic trimethine cyanine; settings: the molecule shown is the open-chain precursor, DMF, 37.0 °C, 12.0 h
[2] = CCClick: 37% aq formaldehyde (5 mM, 5 eq) bridges the two exocyclic methylene carbons of a Fischer base dimer (two C-C bonds), then hemin (1 eq)/air oxidative dehydrogenation, one pot; Al2O3 column; settings: the molecule shown is the open-chain precursor, DMF, 1.0 mM, 37.0 °C, 12.0 h

C=C1N(CCCCCCN2C(=C)C(C)(C)c3c2ccc2ccccc32)c2ccc3ccccc3c2C1(C)C [FB1 -> CY-1]
ring closure, conversion by HPLC ([1]; 13-membered ring): 90%
ring closure, isolated yield ([2]; 13-membered ring): 62%

C=C1N(CCCCCCN2C(=C)C(C)(C)c3c2ccc2ccccc32)c2ccc(OCCCCCC[P+](c3ccccc3)(c3ccccc3)c3ccccc3)cc2C1(C)C.[I-] [FB2 -> CY-2]
ring closure, conversion by HPLC ([1]; 13-membered ring): 90%
ring closure, isolated yield ([2]; 13-membered ring): 57%

C=C1N(CCCCCCN2C(=C)C(C)(C)c3c2ccc2ccccc32)c2ccccc2C1(C)C [FB3 -> CY-3]
ring closure, conversion by HPLC ([1]; 13-membered ring): 48%
ring closure, isolated yield ([2]; 13-membered ring): 35%

C=C1N(CCCCCCN2C(=C)C(C)(C)c3cc(OC)ccc32)c2ccc(OC)cc2C1(C)C [FB4 -> CY-4]
ring closure, conversion by HPLC ([1]; 13-membered ring): 85%
ring closure, isolated yield ([2]; 13-membered ring): 40%

C=C1N(CCCCCCN2C(=C)C(C)(C)c3ccccc32)c2ccccc2C1(C)C [FB5 -> CY-5]
ring closure, conversion by HPLC ([1]; 13-membered ring): 31%
ring closure, isolated yield ([2]; 13-membered ring): 26%

C=C1N(CCCCCCCCCCCCN2C(=C)C(C)(C)c3ccccc32)c2ccccc2C1(C)C [FB6 -> CY-6]
ring closure, conversion by HPLC ([1]; 19-membered ring): 31%
ring closure, isolated yield ([2]; 19-membered ring): 29%

C=C1N(CCCCCCCCCCCCCCCCCCN2C(=C)C(C)(C)c3ccccc32)c2ccccc2C1(C)C [FB7 -> CY-7]
ring closure, conversion by HPLC ([1]; 25-membered ring): 24%
ring closure, isolated yield ([2]; 25-membered ring): 22%

C=C1N(CCOCCOCCN2C(=C)C(C)(C)c3c2ccc2ccccc32)c2ccc3ccccc3c2C1(C)C [FB8 -> CY-8]
ring closure, conversion by HPLC ([1]; 15-membered ring): 34%
ring closure, isolated yield ([2]; 15-membered ring): 16%

C=C1N(CCCCCCCCCCCCN2C(=C)C(C)(C)c3c2ccc2ccccc32)c2ccc3ccccc3c2C1(C)C [FB9 -> CY-9]
ring closure, conversion by HPLC ([1]; 19-membered ring): 77%
ring closure, isolated yield ([2]; 19-membered ring): 44%
